In US20230050846A1, “TREATMENT OF HEPATIC AND CARDIOVASCULAR DISORDERS” (LIFESEARCH, priority 2019, published 2023):
Peptide text beside a SMILES is read from it. * marks the point of attachment. Palmitoyl = CCCCCCCCCCCCCCCC(=O)*

Tests used:
human F1Fo-ATPase = target: T1, human F1Fo-ATPase (Homo sapiens, UniProt P06576); assay: F1-ATPase activity assay (NADH-coupled, purified enzyme); assay type: biochemical; conditions: 1 μM
T1 construct: Human F1Fo-ATPase was purified from HepG2 cells by immunocapture; endogenous in cells; host or cells: HepG2 cells; complex isolated by immunocapture with anti-ATP synthase antibody 12F4AD8AF8 (#ab109867, Abcam)
Description: The mature human IF1 protein (SEQ ID NO: 5) was chemically synthesized by GenScript (Piscataway, N.J., USA) at >80% purity. The peptides derived from the mature human IF1 sequence (IF1-1-60, IF1-10-56, IF1-10-47) were produced by BachemAG (Bubendorf, Switzerland) with >90% purity.
Human F1Fo-ATPase was purified from HepG2 cells by immunocapture using mouse monoclonal anti-ATP synthase antibody (12F4AD8AF8, #ab109867, Abcam) according to manufacturer's instructions.
Measurement of F1-ATPase activity was assayed as previously described. Briefly, 10 μg of F1Fo-ATPase was prepared into 50 μL of activity assay buffer (10 mM HEPES, 150 mM NaCl, 5 mM KCl, 5 mM MgCl2, 0.5 mM phosphoenolpyruvate, 250 μM NADH, 100 μM ATP, 20 U lactate dehydrogenase, 120 U pyruvate kinase). The mixture was incubated at 37° C. for 30 min. Then the F1-ATPase activity was measured in a 96-well microplate by adding 5 μL of the mixture (1 μg of F1Fo-ATPase per point) per well to 200 μL of activity assay buffer at 37° C., and by adding 5 μL of buffer with or without peptide (1 μM each). The reduction in the absorbance of NADH was measured at 340 nm for 5 min with a Varioskan™ Flash Multimode Reader (Thermo Fisher Scientific). A slope was calculated for each well and the results expressed as a percentage of the control slope.

[1] = target: T2, ecto-F1-ATPase (HepG2 cells) (Homo sapiens, UniProt P06576); assay: ecto-F1-ATPase activity: extracellular ADP content, luciferin-luciferase assay; assay type: cell-based; conditions: HepG2, 5 min; for extracellular ADP concentration (ecto-F1-ATPase hydrolytic activity): peptide 0.1 to 5 μM (formula (I)) or 1 μM, effect blunted by IF1 1 μM
T2 construct: host or cells: HepG2
Procedure: The human hepatocyte cell line HepG2 was obtained from the American Type Culture Collection (#HB-8065). HepG2 were cultured in Dulbecco's Modified Eagle's Medium (DMEM)—high glucose (D0822, Sigma-Aldrich) supplemented with 10% fetal bovine serum (10270098, Life technologies), 1% Penicillin-Streptomycin solution (P0781, Sigma-Aldrich). HepG2 cells were seeded on 24-well plates at 75,000 cells/well (Day 0). After 24 hours of growing, cells were serum starved for 24 h in order to synchronize cell cycles (Day 1) and then replaced additional 24 h in complete cell growth medium (Day 2). On day 3, cells were washed and equilibrated in fresh DMEM—high glucose without red phenol for 1 h (D1145, Sigma-Aldrich).
The cells were then treated 5 min with different concentration of peptide of formula (I) (0.1 to 5 μM), the peptide of formula (II) (1 μM), SCR (1 μM), SCR-K-16 (1 μM) or apoA-I (10 μg/mL) purified from human plasma.
Specific ecto-F1-ATPase activation was assessed in the presence of IF1 protein (1 μM), a natural inhibitor of F1-ATPase that interacts with the β-subunit to inhibit the ATP hydrolysis activity [5].
Supernatants were then collected and centrifuged (10,000 g, 5 min, 4° C.) and processed for ADP and ATP measurement. For ADP measurement, ADP was converted into ATP in 150 mM NaCl, 5 mM KCl, 2 mM MgCl2, pH 7.5 buffer containing 0.5 mM phosphoenolpyruvate (PEP) and pyruvate kinase (PK, 6 U per point for 15 min at 37° C.). For ATP measurement, 100 μl of sample was analyzed using the ATP bioluminescence assay kit CLS II (Roche Diagnostics). Samples were added to the ATP assay mixture and luminescence was measured in a microplate reader Infinite F500 (Tecan, Switzerland) for 1000 ms. The ATP standard curve was produced in the same medium as the samples and in the 10^−5 to 10^−10 M concentration range. The ADP concentration was then calculated as the ATP concentration following ADP conversion minus the basal ATP concentration. Data are expressed as nanomoles of ADP produced.

[2] = system: primary mouse hepatocytes; assay: Steatotic primary mouse hepatocytes, intracellular triglyceride content; assay type: cell-based; conditions: 1 μM, 24 h
Procedure: Primary mouse hepatocytes were isolated as described in Example 3 from mice fed western-diet for 11-weeks (Envigo #TD.88137 containing 0.2% cholesterol, 42% kcal from fat, 34% sucrose by weight). Primary mouse hepatocytes were seeded in a 12-well plate at a density of 600,000 cells/well in growth medium and treated for 24 h with apoA-I (10 μg/mL), peptide of formula (I) (1 μM) or peptide of formula (II) (1 μM).
For measurement of intracellular triglyceride content, cells were washed with PBS and scraped in 5% NP-40 lysis buffer and heated for 10 min at 85° C. Triglycerides were then quantified using triglyceride commercial kit (Biolabo #87319). Values were normalized to protein concentration in cell lysates.

HepG2 cells = assay: Cytotoxicity assay (MTT); assay type: cell-based, human
Procedure: HepG2 cells were seeded in a 96-well plate at a density of 10,000 cells/well in growth medium (DMEM high-glucose, 10% fetal bovine serum). The next day, growth medium was changed and the peptide of formula (I) was added once with ascending dose for 24 h, 48 or 72 h or for 48 h with repeating once in 24 h. Similarly, the peptide of formula (II) was added once with ascending dose for 24 h or 48 h or for 48 h with repeating once in 24 h. Cells were incubated for 4 h with 5 mg/L MTT and 100 μL of DMSO was added in the well. Absorbance was recorded at 570 and 660 nm using the microplate spectrophotometer system (Varioscan flash). Cell viability was calculated by subtracting the 570 nm absorbance to the background measured at 660 nm.

Row | Compound | stimulation of F1-ATPase activity (human F1Fo-ATPase) | extracellular ADP concentration (ecto-F1-ATPase hydrolytic activity) [1] | intracellular accumulation of triglycerides vs PBS control [2] | cell viability (MTT) (HepG2 cells; 0.1 to 25 μM, single dose 24 or 48 h, or multiple doses at 24 and 48 h) | concentration at which maximum efficacy on extracellular ADP is reached [1] | cell viability (MTT) (HepG2 cells; 0.1 to 50 μM, single dose 24, 48 or 72 h, or multiple doses at 24 and 48 h)
1 | CCCCCCCCCCCCCCCC(=O)NCCCC[C@H](NC(=O)[C@H](CCC(=O)O)NC(=O)[C@H](CCCNC(=N)N)NC(=O)[C@H](CO)NC(=O)[C@H](CCC(N)=O)NC(=O)[C@H](C)NC(=O)[C@H](CCCNC(=N)N)NC(=O)[C@H](Cc1ccccc1)NC(=O)[C@H](Cc1ccc(O)cc1)NC(=O)[C@H](CCCNC(=N)N)NC(=O)[C@H](CCC(=O)O)NC(=O)[C@H](CCC(=O)O)NC(=O)[C@H](CCC(=O)O)NC(=O)[C@H](C)NC(=O)[C@H](CCC(N)=O)NC(=O)[C@H](CCC(=O)O)NC(=O)[C@H](CCCNC(=N)N)NC(=O)[C@H](CCCCN)NC(=O)CNC(=O)[C@H](Cc1ccccc1)NC(=O)[C@H](C)NC(=O)CNC(=O)CNC(=O)[C@H](C)NC(=O)[C@H](CCC(=O)O)NC(=O)[C@H](CCCNC(=N)N)NC(=O)[C@@H](NC(=O)[C@H](CO)NC(=O)CNC(=O)[C@H](C)NC(=O)CNC(=O)[C@H](CCCNC(=N)N)NC(C)=O)[C@@H](C)CC)C(N)=O [peptide of formula (II), CH3CO-[SEQ ID NO: 1]-K-[palmitoyl]-NH2] (Ac-RGAGSIREAGGAFGKREQAEEERYFRAQSREK(Palmitoyl)-NH2) | 43% | stimulated | significantly reduced | no impact |  | 
2 | Ac-RGAGSIREAGGAFGKREQAEEERYFRAQSRE-NH2 [peptide of formula (I), CH3CO-[SEQ ID NO: 1]-NH2] | 36% | increased | significantly reduced |  | 1 µM | no impact
